Results as given in BindingDB's records for doi:10.1007/pl00005197 (Novartis Pharma, 1998).
Several values for one entry are separate records, joined by “and”; a condition that tells them apart may be missing. Identical values can stand only once. Numbered stars: 1 amine (or outer) side, 2 acyl side, 3 side chain; on linkers, the order of the positions; unused ones are H or OH. Bridge positions count the residues as written; N and C are the ends. Square brackets hold non-standard residues; d marks the D form. Peptide text beside a SMILES is read from it. * marks the point of attachment. d1Nal = N[C@H](Cc1cccc2ccccc12)C(=O)O; Asu = N[C@@H](CCCCCC(=O)O)C(=O)O; X1 = O=C(C(N[*:1])S[*:3])[*:2]; Ahp = NCCCCCCC(=O)O; Bn = c1ccc(C*)cc1; Mpa = O=C(O)CCS

Legend:
[1] = biological target: Somatostatin receptor type 1 (Homo sapiens, UniProt P30872)
[2] = biological target: Somatostatin receptor type 2 (Homo sapiens, UniProt P30874)
[3] = biological target: Somatostatin receptor type 5 (Homo sapiens, UniProt P35346)
[4] = biological target: Somatostatin receptor type 4 (Homo sapiens, UniProt P31391)
[5] = biological target: Somatostatin receptor type 3 (Homo sapiens, UniProt P32745)
Somatostatin receptor type 3, sequence (P32745 whole entry): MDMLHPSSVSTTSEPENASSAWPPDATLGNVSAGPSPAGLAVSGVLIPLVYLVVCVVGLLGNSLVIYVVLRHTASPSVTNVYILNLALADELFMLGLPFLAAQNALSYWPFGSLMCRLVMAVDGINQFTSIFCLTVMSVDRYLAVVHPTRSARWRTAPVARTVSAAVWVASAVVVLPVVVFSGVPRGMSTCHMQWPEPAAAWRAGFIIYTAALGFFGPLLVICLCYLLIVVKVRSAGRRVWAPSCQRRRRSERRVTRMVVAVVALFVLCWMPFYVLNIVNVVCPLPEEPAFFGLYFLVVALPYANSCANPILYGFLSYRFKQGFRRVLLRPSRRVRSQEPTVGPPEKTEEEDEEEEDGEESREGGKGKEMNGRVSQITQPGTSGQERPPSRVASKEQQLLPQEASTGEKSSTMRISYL

Somatostatin receptor type 4, sequence (P31391 whole entry): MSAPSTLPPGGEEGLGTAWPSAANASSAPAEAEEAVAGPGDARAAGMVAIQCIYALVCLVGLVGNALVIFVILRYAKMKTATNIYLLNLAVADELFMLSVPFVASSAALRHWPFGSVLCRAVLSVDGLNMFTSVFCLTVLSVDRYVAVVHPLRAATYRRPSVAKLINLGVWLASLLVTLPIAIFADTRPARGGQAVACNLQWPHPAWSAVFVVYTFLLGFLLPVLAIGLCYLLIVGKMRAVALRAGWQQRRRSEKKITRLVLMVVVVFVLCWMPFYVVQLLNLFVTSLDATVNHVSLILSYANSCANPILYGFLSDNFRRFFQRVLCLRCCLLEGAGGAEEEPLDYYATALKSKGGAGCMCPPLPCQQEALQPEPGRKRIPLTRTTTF
Somatostatin receptor type 1, sequence (P30872 whole entry): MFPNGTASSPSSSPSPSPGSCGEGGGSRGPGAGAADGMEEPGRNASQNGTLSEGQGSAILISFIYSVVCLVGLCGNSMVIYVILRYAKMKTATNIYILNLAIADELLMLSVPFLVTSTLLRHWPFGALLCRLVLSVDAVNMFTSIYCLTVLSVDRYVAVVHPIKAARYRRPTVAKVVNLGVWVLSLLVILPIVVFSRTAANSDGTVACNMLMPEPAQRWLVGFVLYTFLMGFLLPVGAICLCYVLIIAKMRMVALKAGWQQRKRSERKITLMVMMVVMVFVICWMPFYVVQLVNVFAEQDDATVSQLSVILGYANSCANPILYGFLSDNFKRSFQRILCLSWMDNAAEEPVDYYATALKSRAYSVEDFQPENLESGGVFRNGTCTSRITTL
Somatostatin receptor type 5, sequence (P35346 whole entry): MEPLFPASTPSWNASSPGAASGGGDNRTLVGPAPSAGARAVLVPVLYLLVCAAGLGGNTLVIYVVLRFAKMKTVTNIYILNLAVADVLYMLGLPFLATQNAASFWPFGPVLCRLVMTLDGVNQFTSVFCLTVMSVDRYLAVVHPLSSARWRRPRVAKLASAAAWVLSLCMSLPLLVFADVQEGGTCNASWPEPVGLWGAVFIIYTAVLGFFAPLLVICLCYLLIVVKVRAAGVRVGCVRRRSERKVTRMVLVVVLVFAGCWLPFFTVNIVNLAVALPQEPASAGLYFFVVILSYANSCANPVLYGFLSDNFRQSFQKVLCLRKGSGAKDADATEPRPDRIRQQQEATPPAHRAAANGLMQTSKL
Somatostatin receptor type 2, sequence (P30874 whole entry): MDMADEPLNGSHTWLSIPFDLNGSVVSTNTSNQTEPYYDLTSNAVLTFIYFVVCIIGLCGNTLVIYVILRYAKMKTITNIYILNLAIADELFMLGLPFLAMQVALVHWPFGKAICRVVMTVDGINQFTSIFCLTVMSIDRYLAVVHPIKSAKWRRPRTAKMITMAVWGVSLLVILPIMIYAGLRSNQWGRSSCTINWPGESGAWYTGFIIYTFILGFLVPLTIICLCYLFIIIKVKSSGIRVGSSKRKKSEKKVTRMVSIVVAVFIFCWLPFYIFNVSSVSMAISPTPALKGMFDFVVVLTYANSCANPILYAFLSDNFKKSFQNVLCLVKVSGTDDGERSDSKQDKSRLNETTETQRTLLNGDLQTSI

Row | Structure (SMILES) | Ki [1] | Ki [2] | Ki [3] | Ki [4] | Ki [5]
1 | C[C@@H](O)[C@@H]1NC(=O)[C@H](CCCCN)NC(=O)[C@@H](Cc2c[nH]c3ccccc23)NC(=O)[C@H](Cc2ccccc2)NC(=O)[C@@H]2CCCN2C(=O)[C@H](Cc2ccccc2)NC1=O (cyclo(PF[dW]KTF)) | 4790 nM and 4170 nM | 3.39 nM | 67.6 nM | 2450 nM and 8710 nM | 457 nM and 148 nM
2 | CC(C)[C@@H]1NC(=O)[C@H](CCCCN)NC(=O)[C@@H](Cc2c[nH]c3ccccc23)NC(=O)[C@H](Cc2ccc(O)cc2)NC(=O)[C@@H](NC(=O)[C@H](N)Cc2ccc3ccccc3c2)CSSC[C@@H](C(=O)N[C@H](C(N)=O)[C@@H](C)O)NC1=O [3-(2-Naphtyl)-D-Ala-L-Cys(1)-L-Tyr-D-Trp-L-Lys-L-Val-L-Cys(1)-L-Thr-NH2] | 219 nM | 0.54 nM and 0.55 nM | – | – | 13.8 nM and 9.55 nM
3 | CC(C)[C@H](NC(=O)[C@H](CCCCN)NC(=O)[C@@H](Cc1c[nH]c2ccccc12)NC(=O)[C@H](Cc1ccc(O)cc1)NC(=O)[C@H](Cc1ccccc1)NC(=O)[C@H](N)Cc1ccccc1)C(=O)N[C@@H](Cc1ccccc1)C(=O)N[C@H](Cc1cccc2ccccc12)C(N)=O [BIM 23056] (H-[dF]FY[dW]KVF[d1Nal]-NH2) | 245 nM and 347 nM | 589 nM | 209 nM | 67.6 nM and 339 nM | 126 nM and 83.2 nM
4 | C[C@@H](O)[C@H](NC(=O)[C@H](Cc1ccccc1)NC(=O)[C@@H](NC(=O)[C@H](CCCCN)NC(=O)[C@@H](Cc1c[nH]c2ccccc12)NC(=O)[C@H](Cc1ccccc1)NC(=O)[C@H](Cc1ccccc1)NC(=O)[C@H](N)Cc1ccccc1)[C@@H](C)O)C(N)=O [CAS_133073-82-2] (H-[dF]FF[dW]KTFT-NH2) | 4.27 nM and 2.4 nM | 3.16 nM | 35.5 nM | 2.34 nM and 6.31 nM | –
5 | C[C@@H](OCc1ccccc1)[C@@H]1NC(=O)[C@H](CCCCN)NC(=O)[C@@H](Cc2c[nH]c3ccccc23)NC(=O)[C@H](Cc2ccccc2)NC(=O)CCCCCCNC1=O [c[Aha-Phe-D-Trp-Lys-Thr(Bzl)]] (cyclo([Ahp]F[dW]KT(Bn))) | 95.5 nM and 158 nM | 1820 nM | 955 nM | 331 nM and 851 nM | 589 nM and 83.2 nM

Continued, values first:

Row | Ki [1] | Ki [2] | Ki [3] | Ki [4] | Ki [5] | Structure (SMILES)
6 | 83.2 nM and 110 nM | 0.45 nM and 0.25 nM | – | 56.2 nM and 275 nM | 42.7 nM and 12.3 nM | CC(C)[C@@H]1NC(=O)[C@H](CCCCN)NC(=O)[C@@H](Cc2c[nH]c3ccccc23)NC(=O)[C@H](Cc2ccc(O)cc2)NC(=O)[C@@H](NC(=O)[C@H](N)Cc2ccccc2)CSSC[C@@H](C(=O)N[C@@H](Cc2c[nH]c3ccccc23)C(N)=O)NC1=O [CAS_71306] (H-[dF]CY[dW]KVCW-NH2; disulfide 2-7)
7 | 8710 nM and > 10000 nM | 21.9 nM | 2750 nM | 1050 nM and 2750 nM | 67.6 nM and 14.1 nM | CC(C)[C@@H]1NC(=O)[C@H](CCCCN)NC(=O)[C@@H](Cc2c[nH]c3ccccc23)NC(=O)[C@H](Cc2ccc(O)cc2)NC(=O)CCSSC(C(=O)N[C@@H](Cc2ccccc2)C(N)=O)NC1=O (stereo not given in full) [CAS_117580-24-2] ([Mpa]Y[dW]KV[X1]F-NH2; disulfide 1-6)
8 | 4.68 nM and 4.9 nM | 1.15 nM | 214 nM | 1.7 nM and 2.14 nM | 1.51 nM and 0.52 nM | C[C@@H](O)[C@@H]1NC(=O)[C@H](Cc2ccc(O)cc2)NC(=O)[C@H]([C@@H](C)O)NC(=O)[C@H](CCCCN)NC(=O)[C@H](Cc2c[nH]c3ccccc23)NC(=O)[C@H](Cc2ccccc2)NC(=O)[C@H](Cc2ccccc2)NC(=O)[C@H](CC(N)=O)NC(=O)[C@H](CCCCN)NC(=O)CCCCC[C@@H](C(=O)O)NC(=O)[C@H](CO)NC1=O [CGP-23996] (KNFFWKTYTS[Asu]-OH; lactam N-11)
9 | – | 2.88 nM | 3.98 nM | 1.74 nM and 1.78 nM | 0.87 nM and 0.74 nM | C[C@@H](O)[C@@H]1NC(=O)[C@H](CCCCN)NC(=O)[C@H](Cc2c[nH]c3ccccc23)NC(=O)[C@H](Cc2ccccc2)NC(=O)[C@H](Cc2ccccc2)NC(=O)[C@H](CC(N)=O)NC(=O)[C@H](CCCCN)NC(=O)[C@@H](NC(=O)[C@@H]2CCCN2)CSSC[C@@H](C(=O)N[C@@H](CCCCN)C(=O)O)NC(=O)[C@H](CO)NC(=O)[C@H](CO)NC(=O)[C@H](Cc2ccccc2)NC1=O [Cortistatin(1-14)] (H-PCKNFFWKTFSSCK-OH; disulfide 2-13)
10 | 0.25 nM | 0.85 nM and 0.51 nM | 0.29 nM and 0.43 nM | 0.58 nM and 0.28 nM | 0.37 nM and 0.3 nM | CSCC[C@H](NC(=O)[C@H](CCCN=C(N)N)NC(=O)[C@@H](N)CC(=O)O)C(=O)N1CCC[C@H]1C(=O)N[C@H]1CSSC[C@@H](C(=O)N[C@@H](CCCCN)C(=O)O)NC(=O)[C@H](CO)NC(=O)[C@H](CO)NC(=O)[C@H](Cc2ccccc2)NC(=O)[C@H]([C@@H](C)O)NC(=O)[C@H](CCCCN)NC(=O)[C@H](Cc2c[nH]c3ccccc23)NC(=O)[C@H](Cc2ccccc2)NC(=O)[C@H](Cc2ccccc2)NC(=O)[C@H](CC(N)=O)NC(=O)[C@H](CCCN=C(N)N)NC1=O [Cortistatin]
11 | 562 nM and 501 nM | – | – | 49 nM and 174 nM | 24 nM and 5.62 nM | C[C@@H](O)[C@@H]1NC(=O)[C@H](CCCCN)NC(=O)[C@@H](Cc2c[nH]c3ccccc23)NC(=O)[C@H](Cc2c[nH]c3ccccc23)NC(=O)[C@H](Cc2ccccc2)NC(=O)CCCCCCNC(=O)[C@H](Cc2ccccc2)NC1=O [L-362855] (cyclo([Ahp]FW[dW]KTF))
12 | > 10000 nM | – | 0.72 nM | – | – | CC(C)[C@@H]1NC(=O)[C@H](CCCCN)NC(=O)[C@@H](Cc2c[nH]c3ccccc23)NC(=O)[C@H](Cc2ccc(O)cc2)NC(=O)[C@H](C)N(C)C(=O)[C@H](Cc2ccccc2)NC1=O [seglitide]
